Among the data in ChEMBL document CHEMBL3507680, “University of Dundee, Gates Library screen for HepG2 cell viability” are cytotoxicity values, retold here.

The data set in a line: Human HepG2 cell viability assay in 384 well format. Particulars: HepG2 cells, read-out: Inhibition. In kind it is toxicity, cell-based. More on the design: dose 125 nL, time 70.5 hour; concentration not given beside the values.
Turning to `CCN(Cc1nc2c(cnn2C)c(=O)[nH]1)c1ccc(OC)c(OC)c1`, the cytotoxicity at 70.5 h is -7.15%. Regarding `CC(=O)Nn1ccc2c(nnc3c(-c4ccc(F)cc4)cnn32)c1=O`, the cytotoxicity at 70.5 h is -20.1%. As for `Cc1nc(C)n(CC2CN(Cc3cc(C#N)ccc3F)CCO2)n1` (centres undefined), the figure is -1.96%. Take `CCn1nnc(NCc2cc(Cl)cc(Cl)c2OC)n1`: the cytotoxicity at 70.5 h amounted to 18.4%. Next, `CCC(CC)C(=O)NCCc1ccn(-c2ccccc2)n1`: -0.813%. Next, `O=C(c1ccc(=O)[nH]c1)N1CCCC2(C=Cc3ccccc3O2)CC1` (centres undefined): -3.22%. Next, `Cc1nn2cccnc2c1C(=O)N1CCCC(Nc2ccccc2)C1` (centres undefined): -0.861%; `Fc1cnc(N2C[C@H]3CN(Cc4cccc(F)c4)C[C@H]3C2)nc1`: -13.6%; `CCS(=O)(=O)CCSc1ccc(Cl)cc1`: 27%.

Turning to `Cc1c[nH]nc1C1CCN(C(=O)CC2CCCC2)C1` (centres undefined), the cytotoxicity at 70.5 h was -6.41%. As for `O=C(N1CCCC1)N1CCN(Cc2cccnc2)c2ncccc2C1`, the figure is -10.8%. On to `CC(=O)Nc1cc(F)c(S(=O)(=O)N(C)CC2CCC2)c(F)c1`, for which the cytotoxicity at 70.5 h was -0.0857%.

As to `O=C(NC1CC1)c1cc(Sc2ncccn2)ccn1`, the cytotoxicity at 70.5 h was -14.6%. Take `CC(=O)Nc1ccc(CNCC(O)c2ccccc2)cc1` (centres undefined): the cytotoxicity at 70.5 h is -2.04%. As for `CN(C[C@H]1CN2CC[C@H]1C[C@@H]2CNC(=O)c1ccco1)c1ccccc1`, the figure is -0.576%. As for `Cc1cnn(CC2CN(Cc3nccn3C)CCO2)c1` (centres undefined), the figure is -10.6%. As for `Cc1csc(N2CCN(Cc3cscn3)CC2C)n1` (centres undefined), the figure is -4.06%. On to `COc1ccc(-n2c(CCC(=O)O)nc3ccccc32)cc1CO`, for which the cytotoxicity at 70.5 h is 4.28%. Regarding `CCOC[C@]12COC[C@H]1CN(Cc1ccc(F)c(F)c1)C2`, the cytotoxicity at 70.5 h was -4.64%. Next, `O=C(C1CCC1)N1CCC(c2ncc3c(n2)CCNC3)CC1`: -6.1%.

Regarding `O=c1c2ccccc2nc2n1CCN(Cc1cccs1)CC2`, the cytotoxicity at 70.5 h is -16.1%. As for `Cc1cccc(CN2CC3C[C@]3(NC(=O)c3ccoc3)C2)n1` (some centres undefined), the figure is -12.4%; as for `Cc1cnn(CC2CCCN2C(=O)CCc2c(C)nn(C)c2C)c1` (centres undefined), -18.5%; as for `COCCOc1ccc(CNCC2CNc3cc(C)nn3C2)cn1` (centres undefined), -4.87%.

For `CC(C)[C@@H]1CN(C(=O)NCc2ccco2)C[C@H]1NS(=O)(=O)N(C)C`, the cytotoxicity at 70.5 h is 17.9%. Consider `O=C(CN1CCN(c2nccs2)CC1)Nc1cccnc1`, for which the cytotoxicity at 70.5 h was -7.83%. As for `Cc1cccnc1Nc1nccc(C2CN(CC(N)=O)C2)n1`, the cytotoxicity at 70.5 h was -3.23%. Next, `Cn1cc(C[C@H]2[C@H](O)CCN2Cc2ccc(F)cc2)cn1`: 4.14%; `Cc1ccc(NC2CCN(C(=O)c3cc[nH]n3)CC2)nn1`: -11%; `Cc1cc(C)nc(NC2CCCN(CCCc3ccccc3)C2)n1` (centres undefined): 54.5%.

For `CCc1ncc(C(=O)NCCNc2ncnc3sccc23)s1`, the cytotoxicity at 70.5 h is 18.2%. Next, `CCN1CCNC(=O)C12CCN(S(=O)(=O)c1ccc(OC)cc1)CC2`: -7.91%. With `CCc1cc(C(=O)N2CCC(c3cc4ncccc4cn3)CC2)on1`, the cytotoxicity at 70.5 h is -0.772%.

As to `O=C(c1cnccn1)N1CCC2(CC1)CCN(Cc1ccccn1)C2=O`, the cytotoxicity at 70.5 h is 19.9%. Next, `CCOC(=O)[C@H]1[C@@H](O)C(=O)N(C)C12CCN(C(=O)CC1CCCC1)CC2`: -3.01%.

Take `COc1cc(N2CCOC(c3ccc(F)cc3)C2)ncn1` (centres undefined): the cytotoxicity at 70.5 h is -6.22%. As to `O=C(CN1CCOc2ccc(Cl)cc21)NCCCn1ccnc1`, the cytotoxicity at 70.5 h was -5.4%. Next, `CC(C)c1nc2c(n1C)CCN(CC(=O)Nc1ccnn1C(C)C)C2`: 0.248%. As for `COc1ccc(C2Nc3cc(Cl)ccc3C3=NCCN32)cc1OC` (centres undefined), the figure is 42.1%.
